Measurements as given in ChEMBL document CHEMBL1201862, “PubChem BioAssay data set” (2004).
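These data come from cells grown in 96-well plates and exposed to compound for 48 hours at five concentrations. GI50 is the concentration that inhibits growth by half.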 Calls of active or inactive are those of the source. Rule as the data show it: active = GI50 up to about 1.1 µM and inactive = higher.

Assays:
Assay in all cases: inhibition of tumour cell growth, NCI panel, 48 h
[1] = test system: UACC-257
[2] = test system: MDA-MB-435
[3] = test system: SK-MEL-28
[4] = test system: NCI-H522
[5] = test system: Hs-578T
[6] = test system: HCC 2998
[7] = test system: NCI-H23
[8] = test system: ACHN
[9] = test system: HOP-92
[10] = test system: 786-0
[11] = test system: NCI-H460
[12] = test system: RXF 393
[13] = test system: HOP-62
[14] = test system: SNB-19
[15] = test system: KM12
[16] = test system: NCI/ADR-RES
[17] = test system: HT-29
[18] = test system: T47D
[19] = test system: SF-295
[20] = test system: SK-MEL-5
[21] = test system: LOX IMVI
[22] = test system: M14
[23] = test system: A549
[24] = test system: SF-268
[25] = test system: U-251
[26] = test system: UO-31
[27] = test system: COLO 205
[28] = test system: SN12C
[29] = test system: HCT-15
[30] = test system: BT-549
[31] = test system: SNB-75
[32] = test system: OVCAR-3
[33] = test system: IGROV-1
[34] = test system: K562
[35] = test system: Malme-3M
[36] = test system: DU-145
[37] = test system: NCI-H226
[38] = test system: MCF7
[39] = test system: HL-60
[40] = test system: MOLT-4
[41] = test system: MDA-N
[42] = test system: SK-OV-3
[43] = test system: OVCAR-4
[44] = test system: PC-3
[45] = test system: RPMI-8226
[46] = test system: OVCAR-8
[47] = test system: SR
[48] = test system: MDA-MB-231
[49] = test system: TK-10
[50] = test system: SW-620
[51] = test system: CCRF-CEM
[52] = test system: HCT-116
[53] = test system: OVCAR-5
[54] = test system: SF-539
[55] = test system: UACC-62
[56] = test system: EKVX
[57] = test system: CAKI-1
[58] = test system: SK-MEL-2

`CC1(C)C2CC(O)C1(C)CC2=O` (centres undefined) was tested, and the GI50 [1] was > 100 µM (inactive), the GI50 [2] was > 100 µM (inactive) and the GI50 [3] was 3.21 µM (inactive). The GI50 [4] was > 100 µM (inactive), the GI50 [5] was > 100 µM (inactive) and the GI50 [6] was > 100 µM (inactive). The GI50 [7] was > 100 µM (inactive), the GI50 [8] was > 100 µM (inactive) and the GI50 [9] was > 100 µM (inactive). For the same molecule, the GI50 [10] was > 100 µM (inactive), the GI50 [11] was > 100 µM (inactive) and the GI50 [12] was > 100 µM (inactive). For the same molecule, the GI50 [13] was > 100 µM (inactive), the GI50 [14] was > 100 µM (inactive) and the GI50 [15] was > 100 µM (inactive). For the same molecule, the GI50 [16] was > 100 µM (inactive), the GI50 [17] was > 100 µM (inactive) and the GI50 [18] was > 100 µM (inactive). For the same molecule, the GI50 [19] was > 100 µM (inactive), the GI50 [20] was > 100 µM (inactive) and the GI50 [21] was > 100 µM (inactive). For the same molecule, the GI50 [22] was > 100 µM (inactive), the GI50 [23] was > 100 µM (inactive) and the GI50 [24] was > 100 µM (inactive). For the same molecule, the GI50 [25] was > 100 µM (inactive), the GI50 [26] was > 100 µM (inactive) and the GI50 [27] was > 100 µM (inactive). The GI50 [28] was > 100 µM (inactive), the GI50 [29] was > 100 µM and the GI50 [30] was > 100 µM (inactive). For the same molecule, the GI50 [31] was > 100 µM (inactive), the GI50 [32] was > 100 µM (inactive) and the GI50 [33] was > 100 µM (inactive). For the same molecule, the GI50 [34] was > 100 µM (inactive), the GI50 [35] was > 100 µM (inactive) and the GI50 [36] was > 100 µM (inactive). For the same molecule, the GI50 [37] was > 100 µM (inactive), the GI50 [38] was > 100 µM (inactive) and the GI50 [39] was > 100 µM (inactive). For the same molecule, the GI50 [40] was > 100 µM (inactive), the GI50 [41] was > 100 µM (inactive) and the GI50 [42] was > 100 µM (inactive). The GI50 [43] was > 100 µM (inactive), the GI50 [44] was > 100 µM (inactive) and the GI50 [45] was > 100 µM (inactive). For the same molecule, the GI50 [46] was > 100 µM (inactive), the GI50 [47] was > 100 µM (inactive) and the GI50 [48] was > 100 µM (inactive). For the same molecule, the GI50 [49] was > 100 µM (inactive), the GI50 [50] was > 100 µM (inactive) and the GI50 [51] was > 100 µM (inactive). For the same molecule, the GI50 [52] was > 100 µM (inactive), the GI50 [53] was > 100 µM (inactive) and the GI50 [54] was > 100 µM (inactive). The GI50 [55] was > 100 µM (inactive).
For `Cc1c(C)c2c(c(N)c1C#N)C(=O)N(Nc1ccccc1)C2=O`, the GI50 [1] was 81.8 µM (inactive), the GI50 [2] was 72.8 µM (inactive) and the GI50 [3] was > 100 µM (inactive). The GI50 [4] was 29.2 µM (inactive), the GI50 [5] was 46.7 µM (inactive) and the GI50 [56] was 43.9 µM (inactive). For the same molecule, the GI50 [6] was > 100 µM (inactive), the GI50 [8] was 60.1 µM (inactive) and the GI50 [9] was 28.5 µM (inactive). The GI50 [10] was 51.9 µM (inactive), the GI50 [11] was 60.8 µM (inactive) and the GI50 [12] was 20 µM (inactive). For the same molecule, the GI50 [14] was 39.1 µM (inactive), the GI50 [15] was 36.1 µM (inactive) and the GI50 [16] was 52.4 µM (inactive). For the same molecule, the GI50 [18] was 9.95 µM (inactive), the GI50 [19] was 34.1 µM (inactive) and the GI50 [20] was > 100 µM (inactive). The GI50 [21] was 3.51 µM (inactive), the GI50 [22] was > 100 µM (inactive) and the GI50 [23] was 74.3 µM (inactive). The GI50 [24] was 40.8 µM (inactive), the GI50 [25] was 43.5 µM (inactive) and the GI50 [26] was 78.5 µM (inactive). The GI50 [27] was > 100 µM (inactive), the GI50 [28] was > 100 µM (inactive) and the GI50 [29] was > 100 µM. The GI50 [30] was > 100 µM (inactive), the GI50 [31] was 30.6 µM (inactive) and the GI50 [32] was 52.2 µM (inactive). The GI50 [33] was 42.7 µM (inactive), the GI50 [34] was > 100 µM (inactive) and the GI50 [35] was 51.5 µM (inactive). The GI50 [36] was > 100 µM (inactive), the GI50 [37] was 61.2 µM (inactive) and the GI50 [38] was 60.1 µM (inactive). The GI50 [57] was > 100 µM (inactive), the GI50 [39] was 26.7 µM (inactive) and the GI50 [40] was 92.7 µM (inactive). For the same molecule, the GI50 [41] was > 100 µM (inactive), the GI50 [43] was 33.4 µM (inactive) and the GI50 [44] was 57.3 µM (inactive). The GI50 [58] was 96.8 µM (inactive), the GI50 [45] was > 100 µM (inactive) and the GI50 [46] was 33 µM (inactive). The GI50 [47] was 66.1 µM (inactive), the GI50 [48] was 31.9 µM (inactive) and the GI50 [49] was 28.1 µM (inactive). For the same molecule, the GI50 [50] was > 100 µM (inactive), the GI50 [51] was 97.1 µM (inactive) and the GI50 [52] was > 100 µM (inactive). For the same molecule, the GI50 [53] was > 100 µM (inactive), the GI50 [54] was 40.1 µM (inactive) and the GI50 [55] was 51.4 µM (inactive).
